≈ marks a conversion by molar mass, not a printed value. Where “and” joins values, the source holds several entries; their conditions need not be identical. Equal entries are not always repeated. Starred links: 1 amine or outer side, 2 acyl side, 3 side chain; linkers in the order of their positions; H or OH if unused. Positions of bridges follow the written chain, without caps; N, C: chain ends. Non-standard residues stand in square brackets, D forms with d. Residues, ends and D or L forms follow the SMILES beside them. ξ: configuration not given here. *: point of attachment. ξAsp(3ξ-OMe) = COC(C(=O)O)C(N)C(=O)O; X1 = CC(CC(=O)O)C(N[*:1])C(=O)[*:2]; ξAsn(3ξ-OH) = NC(=O)C(O)C(N)C(=O)O; Decanoyl = CCCCCCCCCC(=O)*; X2 = CC(C)CCCCCCC(=O)*; Sar = CNCC(=O)O
Legend:
[1] = test system: Staphylococcus aureus S13E; assay: MIC, conventional agar-dilution assay; assay type: cell-based
Experimental: (§1) The A54145 antibiotics inhibit the growth of pathogenic bacteria. […] The MIC's in Table IX were determined by conventional agar-dilution assays.

[2] = test system: Staphylococcus aureus V41; assay: MIC, conventional agar-dilution assay; assay type: cell-based
Experimental: as §1

[3] = test system: Staphylococcus aureus X1.1; assay: MIC, conventional agar-dilution assay; assay type: cell-based
Experimental: as §1

[4] = test system: Staphylococcus aureus X400; assay: MIC, conventional agar-dilution assay; assay type: cell-based
Experimental: as §1

[5] = test system: Staphylococcus epidermidis 222; assay: MIC, conventional agar-dilution assay; assay type: cell-based
Experimental: as §1

[6] = test system: Staphylococcus epidermidis EPI1; assay: MIC, conventional agar-dilution assay; assay type: cell-based
Experimental: as §1

[7] = test system: Streptococcus pneumoniae Park1; assay: MIC, conventional agar-dilution assay; assay type: cell-based
Experimental: as §1

[8] = test system: Streptococcus pyogenes C203; assay: MIC, conventional agar-dilution assay; assay type: cell-based
Experimental: as §1

[9] = test system: Streptococcus sp. group 2041; assay: MIC, conventional agar-dilution assay; assay type: cell-based
Experimental: as §1

[10] = test system: Streptococcus sp. group D X66; assay: MIC, conventional agar-dilution assay; assay type: cell-based
Experimental: as §1

Streptococcus pyogenes = assay: ED50 in experimentally infected mice; assay type: in vivo; settings: mice infected with Streptococcus pyogenes, subcutaneous; for ED50 Value: doses given 1 and 4 hours postinfection
Experimental: (§2) The A54145 antibiotics have shown in vivo antimicrobial activity against experimentally-induced infections in laboratory animals. When two doses of test compound were administered to mice experimentally infected with Streptococcus pyogenes or Staphylococcus aureus, the activity observed was measured as an ED50 value [effective dose in mg/kg to protect 50% of the test animals: see Warren Wick, et al. J. Bacteriol. 81 233-235 (1961)].

[11] = Chick growth performance test (weight gain, feed efficiency); assay type: in vivo, chicks; settings: for Weight Gain Amt.: chicks 7-14 days of age; for Feed/Gain % Impr. / Weight Gain % Impr.: relative to the control mean
From the text: In the tests, the compounds were given to chicks at the concentrations indicated in the feed. The test period was the 7-day period from 7-14 days of age of the birds. Growth performance (weight gain, feed consumption and feed efficiency) was compared to that of contemporary controls.

[12] = test system: Staphylococcus aureus 209P; assay: Stimulation of in vitro activity by calcium ions; assay type: cell-based; design: dose or concentration left out as unconfirmed
Experimental: (§3) The in vitro activity of the A54145 antibiotics is stimulated by the presence of calcium ions. For example, the in vitro activity of A54145A against Staphylococcus aureus 209P and Streptococcus faecalis ATCC 29212 was stimulated about 100 times by the presence of Ca^++ ([…]).

[13] = test system: Streptococcus faecalis ATCC 29212; assay: Stimulation of in vitro activity by calcium ions; assay type: cell-based; design: dose or concentration left out as unconfirmed
Experimental: as §3

Staphylococcus aureus = assay: ED50 in experimentally infected mice; assay type: in vivo; settings: mice infected with Staphylococcus aureus; subcutaneous; doses given 1 and 4 hours postinfection
Experimental: as §2

[14] = Growth performance of starter pigs; assay type: in vivo
From the text: In this test, a total of 145 barrows and gilts, averaging 22 pounds starting weight, were used to determine the effect of various dosages of A54145 on the growth performance of starter pigs. The pigs were fed an 18% crude protein corn-soy diet and were housed in a completely enclosed building with wire mesh floors elevated over a flush floor. The effect of the treatments on performance was studied for a 28-day trial period.

| SMILES | MIC [1] [µg/mL] | MIC [2] [µg/mL] | MIC [3] [µg/mL] | MIC [4] [µg/mL] | MIC [5] [µg/mL] | MIC [6] [µg/mL] | MIC [7] [µg/mL] | MIC [8] [µg/mL] | MIC [9] [µg/mL] | MIC [10] [µg/mL] | ED50 Value (Streptococcus pyogenes) [mg/kg × 2] | weight gains in chickens (in words) [11] | also measured |
| --- | --- | --- | --- | --- | --- | --- | --- | --- | --- | --- | --- | --- | --- |
| CCCCCCCCCC(=O)NC(Cc1c[nH]c2ccccc12)C(=O)NC(CCC(=O)O)C(=O)NC(C(=O)NC1C(=O)N(C)CC(=O)NC(C)C(=O)NC(CC(=O)O)C(=O)NC(CCCCN)C(=O)NC(C(OC)C(=O)O)C(=O)NCC(=O)NC(CC(N)=O)C(=O)NC(C(C)CC(=O)O)C(=O)NC(C(C)CC)C(=O)OC1C)C(O)C(N)=O (stereo not drawn) [Component A54145B] (Decanoyl-WE[ξAsn(3ξ-OH)]T[Sar]ADK[ξAsp(3ξ-OMe)]GN[X1]I; ester 4-C; configuration not given here) | 2 (≈ 1.21 µM) | 2 (≈ 1.21 µM) | 2 (≈ 1.21 µM) | 2 (≈ 1.21 µM) | 2 (≈ 1.21 µM) | 2 (≈ 1.21 µM) | 2 (≈ 1.21 µM) | 0.5 (≈ 0.301 µM) | 8 (≈ 4.82 µM) | 4 (≈ 2.41 µM) | 0.94 | increased weight gains | Feed/Gain Ratio ([11]; Table XIII, 5 g/ton): 1.887; Weight Gain Amt. ([11]; Table XIII, 5 g/ton in feed): 341 g; Feed/Gain % Impr. ([11]; Table XIII, 5 g/ton): 6.3%; Weight Gain % Impr. ([11]; Table XIII, 5 g/ton): 8.3%; Feed/Gain Ratio ([11]; Table XIII, 10 g/ton): 1.730; Weight Gain Amt. ([11]; Table XIII, 10 g/ton in feed): 392 g; Feed/Gain % Impr. ([11]; Table XIII, 10 g/ton): 14.1%; Weight Gain % Impr. ([11]; Table XIII, 10 g/ton): 24.4%; Feed/Gain Ratio ([11]; Table XIII, 20 g/ton): 1.785; Weight Gain Amt. ([11]; Table XIII, 20 g/ton in feed): 402 g; Feed/Gain % Impr. ([11]; Table XIII, 20 g/ton): 11.3%; Weight Gain % Impr. ([11]; Table XIII, 20 g/ton): 27.6% |
| CCC(C)C1NC(=O)C(CCC(=O)O)NC(=O)C(CC(N)=O)NC(=O)CNC(=O)C(C(OC)C(=O)O)NC(=O)C(CCCCN)NC(=O)C(CC(=O)O)NC(=O)C(C)NC(=O)CN(C)C(=O)C(NC(=O)C(NC(=O)C(CCC(=O)O)NC(=O)C(Cc2c[nH]c3ccccc23)NC(=O)CCCCCCC(C)C)C(O)C(N)=O)C(C)OC1=O (stereo not drawn) [Component A54145A] (X2-WE[ξAsn(3ξ-OH)]T[Sar]ADK[ξAsp(3ξ-OMe)]GNEI; ester 4-C; configuration not given here) | 8 (≈ 4.86 µM) | 8 (≈ 4.86 µM) | 8 (≈ 4.86 µM) | 8 (≈ 4.86 µM) | 4 (≈ 2.43 µM) | 4 (≈ 2.43 µM) | 8 (≈ 4.86 µM) | 2 (≈ 1.22 µM) | 64 (≈ 38.9 µM) | 16 (≈ 9.73 µM) | 2.4 | increased weight gains | stimulation of in vitro activity by Ca++ [12]: about 100 times; stimulation of in vitro activity by Ca++ [13]: about 100 times; ED50 Value (Staphylococcus aureus): 3.3 mg/kg × 2; ED50 Value, individual values of two tests (Streptococcus pyogenes; individual tests behind the average): 1.6 mg/kg × 2 and 3.1 mg/kg × 2; Feed/Gain Ratio ([11]; Table XII, 20 g/ton): 1.546; Weight Gain Amt. ([11]; Table XII, 20 g/ton in feed): 168 g; Feed/Gain % Impr. ([11]; Table XII, 20 g/ton): 11.0%; Weight Gain % Impr. ([11]; Table XII, 20 g/ton): 26.3%; feed/gain ratio in pigs (in words) [14]: improved the feed/gain ratio |
